Data published in patent US20160000782A1, “PHARMACEUTICAL COMPOSITION CONTAINING ANTIBACTERIAL AGENT” (priority 2013, published 2016).

Test system: Archaea (extreme halophile) infection causing dementia
Assay: Treatment of patients with progressive dementia of unknown etiology (clinical course, MRI)
Type: in vivo, human
Method: The present inventors conducted studies by targeting 4 subjects with progressive dementia of unknown etiology at the Kagoshima University Medical and Dental Hospital. This study took place after the informed consent of the patients involved had been obtained. Also, this study was carried out with the approval of the ethical review committee of Kagoshima University.
Dementia was evaluated using the Revised Hasegawa Dementia Scale (HDS-R), which is […] that used for the mini-mental status examination (MMSE).

## CO/N=C(\C(=O)N[C@@H]1C(=O)N2C(C(=O)O)=C(CSc3nc(=O)c(=O)[nH]n3C)CS[C@H]12)c1csc(N)n1 [ceftriaxone]
Patient 1, ceftriaxone and methylprednisolone administered together, 2 weeks after the initial administration
  symptoms: improved slightly
Patient 1, ceftriaxone and methylprednisolone administered together, later course, enlarged lesion in base of temporal lobe on brain MRI
  symptoms thereafter: tended to progress
Patient 3, ceftriaxone 4 g/day intravenous for 2 weeks
  improvement: no improvement was observed
